Data reported in patent USRE47475E1, “Selective agents for pain suppression” (WiSys Technology Foundation, Inc., priority 2002, dated 2019).
pKi: −log10 of the molar value.

How the values were obtained:
[1] = tested on: seizures; details: rats, even orally; cited from earlier work
[2] = molecular target: T1, GABAA/α1 (α1β3γ2 GABAA receptor) (Homo sapiens, UniProt P14867+P18507); experiment: competitive binding assay with [3H]flunitrazepam; details: Table 3; read-out: Binding Affinity at GABAA/α1
T1 construct: expressed in transfected cells
Protocol: (§1) Membranes were harvested with a Brandel cell harvester followed by three ice-cold washes onto polyethyleneimine-pretreated (0.3%) Whatman GF/C filters. Filters were dried overnight and then soaked in Ecoscint, a liquid scintillation cocktail (National Diagnostics; Atlanta, Ga.). Bound radioactivity was quantified by liquid scintillation counting. Membrane protein concentrations were determined using an assay kit from Bio-Rad (Hercules, Calif.) with bovine serum albumin as the standard.
as §1, with “The GABAA subunit selectivity of several compounds prepared as described above were determined using competitive binding assays. […] Membranes” for “Membranes”

[3] = molecular target: T2, GABAA/α2 (α2β3γ2 GABAA receptor) (Homo sapiens, UniProt P18507+P47869); experiment: competitive binding assay with [3H]flunitrazepam; details: Table 3; read-out: Binding Affinity at GABAA/α2
T2 construct: expressed in transfected cells
Protocol: as §1
as §1, with “The GABAA subunit selectivity of several compounds prepared as described above were determined using competitive binding assays. […] Membranes” for “Membranes”

[4] = molecular target: T3, GABAA/α3 (α3β3γ2 GABAA receptor) (Homo sapiens, UniProt P18507+P34903); experiment: competitive binding assay with [3H]flunitrazepam; details: Table 3; read-out: Binding Affinity at GABAA/α3
T3 construct: expressed in transfected cells
Protocol: as §1
as §1, with “The GABAA subunit selectivity of several compounds prepared as described above were determined using competitive binding assays. […] Membranes” for “Membranes”

[5] = molecular target: T4, GABAA/α4 (α4β3γ2 GABAA receptor) (Homo sapiens, UniProt P18507+P48169); experiment: competitive binding assay with [3H]flunitrazepam; details: Table 3; read-out: Binding Affinity at GABAA/α4
T4 construct: expressed in transfected cells
Protocol: as §1
as §1, with “The GABAA subunit selectivity of several compounds prepared as described above were determined using competitive binding assays. […] Membranes” for “Membranes”

[6] = molecular target: T5, GABAA/α5 (α5β3γ2 GABAA receptor) (Homo sapiens, UniProt P18507+P31644); experiment: competitive binding assay with [3H]flunitrazepam; details: Table 3; read-out: Binding Affinity at GABAA/α5
T5 construct: expressed in transfected cells
Protocol: as §1
as §1, with “The GABAA subunit selectivity of several compounds prepared as described above were determined using competitive binding assays. […] Membranes” for “Membranes”

[7] = molecular target: T6, GABAA/α6 (α6β3γ2 GABAA receptor) (Homo sapiens, UniProt P18507+Q16445); experiment: competitive binding assay with [3H]flunitrazepam; details: Table 3; read-out: Binding Affinity at GABAA/α6
T6 construct: expressed in transfected cells
Protocol: as §1
as §1, with “The GABAA subunit selectivity of several compounds prepared as described above were determined using competitive binding assays. […] Membranes” for “Membranes”

SMILES	anticonvulsant activity of the sole metabolite [1]	pKi [2]	pKi [3]	pKi [4]	pKi [5]	pKi [6]	pKi [7]
C#Cc1ccc2c(c1)C(c1ccccn1)=NCc1c(C(=O)O)ncn1-2 [HZ-166 acid]	anticonvulsant	–	–	–	–	–	–
C#Cc1ccc2c(c1)C(c1ccccc1)=NCC(=O)N2C [QB-II-066, 1-Methyl-7-acetyleno-5-phenyl-1,3-dihydro-benzo[e]-1,4-diazepin-2-one]	–	7.12	7.38	7.32	< 6.00	8.17	< 6.00
